From PubChem BioAssay AID330 (DTP/NCI, 2004)
Several values for one entry are separate records, joined by “and”; a condition that tells them apart may be missing. Equal entries are not always repeated. Inconclusive results and toxic doses are left out. The calls were made as follows: active = survival T/C of 150% or more; inactive = T/C below 125% in these data.

Test system: P388 leukemia ip, CD2F1 mice, survival T/C
Test: NCI In Vivo Anticancer Drug Screen. Data for tumor model P388 Leukemia (intraperitoneal) in CD2F1 (CDF1) mice
Conditions: endpoint: median survival time, higher = longer survival
Method in brief: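 Mice carrying the transplanted tumor received test compound or vehicle. Survival was recorded in each group, and the value is the treated-group measurement divided by that of the vehicle-treated control group.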

[1] = dose: 50.0 mg/kg/injection, schedule: Q01DX005 (ip), vehicle: saline
[2] = dose: 100.0 mg/kg/injection, schedule: Q01DX005 (ip), vehicle: saline
[3] = dose: 200.0 mg/kg/injection, schedule: Q01DX005 (ip), vehicle: saline
[4] = dose: 25.0 mg/kg/injection, schedule: Q01DX005 (ip), vehicle: saline
[5] = dose: 25.0 mg/kg/injection, schedule: Q01DX009 (ip), vehicle: saline with Tween-80
[6] = dose: 50.0 mg/kg/injection, schedule: Q01DX009 (ip), vehicle: saline with Tween-80
[7] = dose: 60.0 mg/kg/injection, schedule: Q01DX005 (ip), vehicle: Klucel (hydroxypropylcellulose) (HPC)
[8] = dose: 60.0 mg/kg/injection, schedule: Q01DX005 (ip), vehicle: saline with Tween-80
[9] = dose: 120.0 mg/kg/injection, schedule: Q01DX005 (ip), vehicle: saline with Tween-80
[10] = dose: 50.0 mg/kg/injection, schedule: Q01DX009 (ip), vehicle: Klucel (hydroxypropylcellulose) (HPC)
[11] = dose: 100.0 mg/kg/injection, schedule: Q01DX009 (ip), vehicle: Klucel (hydroxypropylcellulose) (HPC)
[12] = dose: 200.0 mg/kg/injection, schedule: Q01DX009 (ip), vehicle: Klucel (hydroxypropylcellulose) (HPC)
[13] = dose: 25.0 mg/kg/injection, schedule: Q01DX009 (ip), vehicle: Klucel (hydroxypropylcellulose) (HPC)
[14] = dose: 50.0 mg/kg/injection, schedule: Q01DX005 (ip), vehicle: saline with Tween-80
[15] = dose: 100.0 mg/kg/injection, schedule: Q01DX005 (ip), vehicle: saline with Tween-80
[16] = dose: 200.0 mg/kg/injection, schedule: Q01DX005 (ip), vehicle: saline with Tween-80

Measured: T/C

CC(CCO)CCC(Br)C(C)(C)Br (configuration not stated)
inactive: [1] 103 % of control | [2] 105 % of control | [3] 100 % of control

CC(=O)CC1CCCC(C#N)N1 (configuration not stated)
inactive: dose: 12.5 mg/kg/injection, schedule: Q01DX005 (ip), vehicle: saline 97 % of control | [4] 101 % of control | [1] 100 % of control and 98 % of control

Nc1nc2ccccc2n1C(=O)C(F)(F)F
inactive: dose: 100.0 mg/kg/injection, schedule: Q01DX001 (ip), vehicle: Klucel (hydroxypropylcellulose) (HPC) 98 % of control | dose: 200.0 mg/kg/injection, schedule: Q01DX001 (ip), vehicle: Klucel (hydroxypropylcellulose) (HPC) 116 % of control

Cc1ccc(S(=O)(=O)N2CC3CC=C(Cc4ccnc5ccccc45)CC(C2)C3=O)cc1 (configuration not stated)
inactive: dose: 100.0 mg/kg/injection, schedule: Q04DX003 (ip), vehicle: Klucel (hydroxypropylcellulose) (HPC) 105 % of control | dose: 200.0 mg/kg/injection, schedule: Q04DX003 (ip), vehicle: Klucel (hydroxypropylcellulose) (HPC) 91 % of control | dose: 400.0 mg/kg/injection, schedule: Q04DX003 (ip), vehicle: Klucel (hydroxypropylcellulose) (HPC) 96 % of control

CN(C=O)c1cc2c3c(c1)CCCN3CCC2
inactive: dose: 12.5 mg/kg/injection, schedule: Q01DX009 (ip), vehicle: saline with Tween-80 109 % of control | dose: 12.5 mg/kg/injection, schedule: Q04DX003 (ip), vehicle: saline with Tween-80 100 % of control | [5] 104 % of control | dose: 25.0 mg/kg/injection, schedule: Q04DX003 (ip), vehicle: saline with Tween-80 90 % of control | [6] 109 % of control | dose: 50.0 mg/kg/injection, schedule: Q04DX003 (ip), vehicle: saline with Tween-80 95 % of control

C/C(=N\N)c1nc2ccccc2[nH]1
inactive: dose: 15.0 mg/kg/injection, schedule: Q01DX005 (ip), vehicle: saline with Tween-80 101 % of control | dose: 30.0 mg/kg/injection, schedule: Q01DX005 (ip), vehicle: saline with Tween-80 101 % of control | [7] 100 % of control | [8] 108 % of control

O=C(O)CCC(=O)O
inactive: dose: 10.0 mg/kg/injection, schedule: Q01DX009 (ip), vehicle: water 90 % of control | dose: 20.0 mg/kg/injection, schedule: Q01DX009 (ip), vehicle: water 99 % of control and 109 % of control | dose: 40.0 mg/kg/injection, schedule: Q01DX009 (ip), vehicle: water 98 % of control and 94 % of control | dose: 80.0 mg/kg/injection, schedule: Q01DX009 (ip), vehicle: water 96 % of control and 91 % of control | dose: 160.0 mg/kg/injection, schedule: Q01DX009 (ip), vehicle: water 101 % of control and 102 % of control

CC(C)(C)N(OC(=O)c1ccc(Cl)cc1)c1ccccc1
inactive: [5] 99 % of control | [6] 99 % of control

O=C(C1CC2CCN1CC2)N1CCN(C(=O)C2CC3CCN2CC3)CC1 (configuration not stated)
inactive: dose: 1.56 mg/kg/injection, schedule: Q01DX005 (ip), vehicle: saline 98 % of control | dose: 3.12 mg/kg/injection, schedule: Q01DX005 (ip), vehicle: saline 102 % of control and 96 % of control | dose: 6.25 mg/kg/injection, schedule: Q01DX005 (ip), vehicle: saline 97 % of control | [8] 101 % of control | [9] 101 % of control

N#CC(C(=O)CCCC(=O)Nc1ccccc1[N+](=O)[O-])c1ccc(Cl)cc1Cl (configuration not stated)
inactive: [8] 106 % of control | [9] 104 % of control | dose: 240.0 mg/kg/injection, schedule: Q01DX005 (ip), vehicle: saline with Tween-80 101 % of control

CC(C)CSc1nc2ccc(N=Cc3ccccc3O)cc2s1
inactive: [10] 94 % of control | [11] 92 % of control | [12] 89 % of control

Cc1cc(=O)c(C(=O)NC=O)c(C)o1
inactive: dose: 50.0 mg/kg/injection, schedule: Q01DX005 (ip), vehicle: Klucel (hydroxypropylcellulose) (HPC) 99 % of control | dose: 100.0 mg/kg/injection, schedule: Q01DX005 (ip), vehicle: Klucel (hydroxypropylcellulose) (HPC) 101 % of control | dose: 200.0 mg/kg/injection, schedule: Q01DX005 (ip), vehicle: Klucel (hydroxypropylcellulose) (HPC) 117 % of control

c1ccc2c3c(ccc2c1)OCCOCCOc1ccc2ccccc2c1-c1c(ccc2ccccc12)OCCOCCOc1ccc2ccccc2c1-3
inactive: dose: 100.0 mg/kg/injection, schedule: Q04DX002 (ip), vehicle: saline with Tween-80 96 % of control | dose: 200.0 mg/kg/injection, schedule: Q04DX002 (ip), vehicle: saline with Tween-80 89 % of control | dose: 400.0 mg/kg/injection, schedule: Q04DX002 (ip), vehicle: saline with Tween-80 91 % of control

Oc1cc(O)cc(/C=C/c2ccc(O)c(O)c2)c1
inactive: dose: 3.12 mg/kg/injection, schedule: Q01DX009 (ip), vehicle: DMSO 109 % of control | dose: 6.25 mg/kg/injection, schedule: Q01DX009 (ip), vehicle: DMSO 114 % of control | dose: 12.5 mg/kg/injection, schedule: Q01DX009 (ip), vehicle: DMSO 118 % of control | dose: 25.0 mg/kg/injection, schedule: Q01DX009 (ip), vehicle: DMSO 123 % of control

Nc1c(C(=O)Nc2ccc(NC(=O)c3ccc4c(c3N)C(=O)c3ccccc3C4=O)c3c2C(=O)c2ccccc2C3=O)ccc2c1C(=O)c1ccccc1C2=O
inactive: dose: 50.0 mg/kg/injection, schedule: Q01DX009 (ip), vehicle: suspension in saline 103 % of control | dose: 100.0 mg/kg/injection, schedule: Q01DX009 (ip), vehicle: suspension in saline 106 % of control | dose: 200.0 mg/kg/injection, schedule: Q01DX009 (ip), vehicle: suspension in saline 103 % of control

Clc1ccc(Cl)c(NNc2cc(Cl)ccc2Cl)c1
inactive: [13] 96 % of control | [10] 91 % of control | [11] 87 % of control | [12] 102 % of control

C#CCOC(=O)Nc1nc2ccc(C)cc2s1
inactive: dose: 6.25 mg/kg/injection, schedule: Q01DX009 (ip), vehicle: Klucel (hydroxypropylcellulose) (HPC) 107 % of control | dose: 12.5 mg/kg/injection, schedule: Q01DX009 (ip), vehicle: Klucel (hydroxypropylcellulose) (HPC) 104 % of control | [13] 101 % of control

Cn1c(=O)[nH]c(N)c(NC=O)c1=O
inactive: [14] 103 % of control | [15] 101 % of control | [16] 101 % of control

CN=C(C#N)c1ccccc1
inactive: [14] 100 % of control | [15] 98 % of control | [16] 99 % of control

OCC1CC2CCCCN2O1 (configuration not stated)
inactive: [4] 102 % of control | [1] 101 % of control | [2] 105 % of control | [3] 106 % of control

NC(=O)C(C(N)=O)=C1C(=O)c2ccccc2C1=O
inactive: [7] 95 % of control | dose: 120.0 mg/kg/injection, schedule: Q01DX005 (ip), vehicle: Klucel (hydroxypropylcellulose) (HPC) 100 % of control | dose: 240.0 mg/kg/injection, schedule: Q01DX005 (ip), vehicle: Klucel (hydroxypropylcellulose) (HPC) 99 % of control

CCCCCCC(=O)/C=C/c1ccc(OC(=O)c2ccc([N+](=O)[O-])cc2)cc1
inactive: dose: 12.5 mg/kg/injection, schedule: Q01DX009 (ip), vehicle: saline 105 % of control | dose: 25.0 mg/kg/injection, schedule: Q01DX009 (ip), vehicle: saline 100 % of control | dose: 50.0 mg/kg/injection, schedule: Q01DX009 (ip), vehicle: saline 103 % of control and 97 % of control | dose: 100.0 mg/kg/injection, schedule: Q01DX009 (ip), vehicle: saline 92 % of control | dose: 200.0 mg/kg/injection, schedule: Q01DX009 (ip), vehicle: saline 92 % of control
